In general, DC50 refers to the concentration giving 50% degradation.

The test system of this assay is HiBiT-HSD17β13 fusion protein (N-terminal HiBiT-tagged HSD17β13 isoform D) in Huh7 HiBiT-HSD17β13 OE cells. In words: Whole-cell Huh7-HSD17B13 HiBiT assay (degrader potency and maximal efficacy, luminescence readout). It counts as cell-based, human. The settings on record: 24 hour incubation, geometric mean, * = geometric mean for all forms tested (parent and salt forms); for DC50: read-out: Huh7_HIBIT-HSD17β13_DC50 GMean DC50; for Huh7_HIBIT-HSD17β13_DC50 GMean Asymptote Maximum: max. concentration 1 μM. The method, boiled down:
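Luminescence from lytic HiBiT detection tracked residual HiBiT-HSD17β13 (isoform D, N-terminal tag) in a stable Huh7 overexpressing clone after 24 h compound treatment at 37° C, 11 concentrations up to 1 μM final. Percent effect used DMSO (zero) and parental Huh7 (high) wells; four-parameter fit gave 50% degradation; viability checked by CellTiter-Glo.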
In general terms: With HiBiT, luminescence reflects the tagged protein that the partner subunit can reach.

Counter-ions that a name gives are not always drawn.

For `Cn1c(=O)n(C2CCC(=O)NC2=O)c2ccc(CCCN3CCN(c4nc(-c5nc([C@]67CC[C@](CNC(=O)c8cc(F)c(O)c(F)c8F)(CC6)CC7)no5)cc(N5CCCC5)n4)CC3)cc21` (mixture of isomers) [Example 127, N-{[4-(5-{2-[4-(3-{1-[(3RS)-2,6-dioxopiperidin-3-yl]-3-methyl-2-oxo-2,3-dihydro-1H-benzimidazol-5-yl}propyl)piperazin-1-yl]-6-(pyrrolidin-1-yl)pyrimidin-4-yl}-1,2,4-oxadiazol-3-yl)bicyclo[2.2.2]octan-1-yl]methyl}-2,3,5-trifluoro-4-hydroxybenzamide, trifluoroacetate salt], the 50% degradation concentration (DC50) came to 0.37 nM and the “Huh7_HIBIT-HSD17β13_DC50 GMean Asymptote Maximum” value is recorded as 79%.
As to `O=C1CCN(c2cc(C(=O)N3CCN(CC4CCN(c5ncc(-c6ccc7cn([C@H]8CC[C@H](CNC(=O)c9cc(F)c(O)c(F)c9F)CC8)nc7c6)cn5)CC4)CC3)ccc2Cl)C(=O)N1` [Example 108, N-{[(1r,4r)-4-(6-{2-[4-({4-[4-chloro-3-(2,4-dioxo-1,3-diazinan-1-yl)benzoyl]piperazin-1-yl}methyl)piperidin-1-yl]pyrimidin-5-yl}-2H-indazol-2-yl)cyclohexyl]methyl}-2,3,5-trifluoro-4-hydroxybenzamide], the DC50 turned out to be 1.3 nM and the “Huh7_HIBIT-HSD17β13_DC50 GMean Asymptote Maximum” value was 80%.
Consider `COc1c(C(=O)NC[C@]23CC[C@](c4noc(-c5ccnc(N6CCN(CCCc7ccc8c(c7)n(C)c(=O)n8C7CCC(=O)NC7=O)CC6)n5)n4)(CC2)CC3)cc(F)c(O)c1F` (mixture of isomers) [Example 124, N-{[4-(5-{2-[4-(3-{1-[(3RS)-2,6-dioxopiperidin-3-yl]-3-methyl-2-oxo-2,3-dihydro-1H-benzimidazol-5-yl}propyl)piperazin-1-yl]pyrimidin-4-yl}-1,2,4-oxadiazol-3-yl)bicyclo[2.2.2]octan-1-yl]methyl}-3,5-difluoro-4-hydroxy-2-methoxybenzamide, trifluoroacetate salt], for which the DC50 was determined as 0.27 nM and the “Huh7_HIBIT-HSD17β13_DC50 GMean Asymptote Maximum” value is recorded as 72%.
Taken in the same sequence, the figures for `Cn1c(=O)n(C2CCC(=O)NC2=O)c2ccc(CCCN3CCN(c4cnc(-c5ccn6cc([C@]78CC[C@](CNC(=O)c9cc(F)c(O)c(F)c9F)(CC7)CC8)nc6c5)cn4)CC3)cc21` (mixture of isomers) [Example 130, N-{[4-(7-{5-[4-(3-{1-[(3RS)-2,6-dioxopiperidin-3-yl]-3-methyl-2-oxo-2,3-dihydro-1H-benzimidazol-5-yl}propyl)piperazin-1-yl]pyrazin-2-yl}imidazo[1,2-a]pyridin-2-yl)bicyclo[2.2.2]octan-1-yl]methyl}-2,3,5-trifluoro-4-hydroxybenzamide, trifluoroacetate salt] were 0.5 nM and 83%.
Take `Cn1c(=O)n(C2CCC(=O)NC2=O)c2ccc(CCCN3CCN(c4nc(-c5nc([C@]67CC[C@](CNC(=O)c8cc(F)c(O)c(F)c8F)(CC6)CC7)no5)cc(N5CCOCC5)n4)CC3)cc21` (mixture of isomers) [Example 123, N-{[4-(5-{2-[4-(3-{1-[(3RS)-2,6-dioxopiperidin-3-yl]-3-methyl-2-oxo-2,3-dihydro-1H-benzimidazol-5-yl}propyl)piperazin-1-yl]-6-(morpholin-4-yl)pyrimidin-4-yl}-1,2,4-oxadiazol-3-yl)bicyclo[2.2.2]octan-1-yl]methyl}-2,3,5-trifluoro-4-hydroxybenzamide]: the DC50 was 0.23 nM and the “Huh7_HIBIT-HSD17β13_DC50 GMean Asymptote Maximum” value is recorded as 79%.
Turning to `Cn1c(=O)n(C2CCC(=O)NC2=O)c2ccc(CCCN3CCN(c4nc(-c5nc([C@]67CC[C@](CNC(=O)c8cc(F)c(O)c(F)c8F)(CC6)CC7)no5)cc(-n5ccnc5)n4)CC3)cc21` (mixture of isomers) [Example 125, N-{[4-(5-{2-[4-(3-{1-[(3RS)-2,6-dioxopiperidin-3-yl]-3-methyl-2-oxo-2,3-dihydro-1H-benzimidazol-5-yl}propyl)piperazin-1-yl]-6-(1H-imidazol-1-yl)pyrimidin-4-yl}-1,2,4-oxadiazol-3-yl)bicyclo[2.2.2]octan-1-yl]methyl}-2,3,5-trifluoro-4-hydroxybenzamide, formate salt], the half-maximal degradation concentration (DC50) is 0.28 nM and the “Huh7_HIBIT-HSD17β13_DC50 GMean Asymptote Maximum” value is on record as 85%.
Turning to `Cc1sc([C@]23CC[C@](CNC(=O)c4cc(F)c(O)c(F)c4F)(CC2)CC3)nc1-c1ccnc(N2CCN(CCCc3ccc4c(c3)n(C)c(=O)n4C3CCC(=O)NC3=O)CC2)n1` (mixture of isomers) [Example 122, N-{[4-(4-{2-[4-(3-{1-[(3RS)-2,6-dioxopiperidin-3-yl]-3-methyl-2-oxo-2,3-dihydro-1H-benzimidazol-5-yl}propyl)piperazin-1-yl]pyrimidin-4-yl}-5-methyl-1,3-thiazol-2-yl)bicyclo[2.2.2]octan-1-yl]methyl}-2,3,5-trifluoro-4-hydroxybenzamide], the DC50 came out at 0.23 nM and the “Huh7_HIBIT-HSD17β13_DC50 GMean Asymptote Maximum” value was determined as 73%.
`Cn1c(=O)n(C2CCC(=O)NC2=O)c2ccc(CCCN3CCc4ccc(-c5ccc6cn([C@H]7CC[C@H](CNC(=O)c8cc(F)c(O)c(F)c8F)CC7)nc6c5)cc4C3)cc21` (mixture of isomers) [Example 32, N-{[(1r,4r)-4-{6-[2-(3-{1-[(3RS)-2,6-dioxopiperidin-3-yl]-3-methyl-2-oxo-2,3-dihydro-1H-benzimidazol-5-yl}propyl)-1,2,3,4-tetrahydroisoquinolin-7-yl]-2H-indazol-2-yl}cyclohexyl]methyl}-2,3,5-trifluoro-4-hydroxybenzamide, trifluoroacetate salt]: the DC50 was 0.3 nM and the “Huh7_HIBIT-HSD17β13_DC50 GMean Asymptote Maximum” value was 83%.
Turning to `Cl.O=C1CCN(c2cnn3cc(CCCN4CCN(c5cnc(-c6ccc7cn([C@H]8CC[C@H](CNC(=O)c9cc(F)c(O)c(F)c9F)CC8)nc7c6)cn5)CC4)ccc23)C(=O)N1` [Example 10, N-{[(1r,4r)-4-{6-[5-(4-{3-[3-(2,4-Dioxo-1,3-diazinan-1-yl)pyrazolo[1,5-a]pyridin-6-yl]propyl}piperazin-1-yl)pyrazin-2-yl]-2H-indazol-2-yl}cyclohexyl]methyl}-2,3,5-trifluoro-4-hydroxybenzamide, hydrochloride salt], the DC50 came out at 0.28 nM and the “Huh7_HIBIT-HSD17β13_DC50 GMean Asymptote Maximum” value was 82%.
`Cn1c(=O)n(C2CCC(=O)NC2=O)c2ccc(CCCN3CCc4cc(-c5ccc6cn([C@H]7CC[C@H](CNC(=O)c8cc(F)c(O)c(F)c8F)CC7)nc6c5)ccc4C3)cc21` (mixture of isomers) [Example 34, N-{[(1r,4r)-4-{6-[2-(3-{1-[(3RS)-2,6-dioxopiperidin-3-yl]-3-methyl-2-oxo-2,3-dihydro-1H-benzimidazol-5-yl}propyl)-1,2,3,4-tetrahydroisoquinolin-6-yl]-2H-indazol-2-yl}cyclohexyl]methyl}-2,3,5-trifluoro-4-hydroxybenzamide, trifluoroacetate salt]: the DC50 came to 0.23 nM and the “Huh7_HIBIT-HSD17β13_DC50 GMean Asymptote Maximum” value is reported as 81%.
In the case of `Cn1c(=O)n(C2CCC(=O)NC2=O)c2ccc(CCCN3C[C@H]4CCN(c5ccc6cn(C7CCC(CNC(=O)c8cc(F)c(O)c(F)c8F)CC7)nc6c5)C[C@H]4C3)cc21.O=CO` (mixture of isomers) [Example 22, N-{[(1r,4r)-4-{6-[(3aR,7aS)-2-(3-{1-[(3RS)-2,6-Dioxopiperidin-3-yl]-3-methyl-2-oxo-2,3-dihydro-1H-benzimidazol-5-yl}propyl)octahydro-5H-pyrrolo[3,4-c]pyridin-5-yl]-2H-indazol-2-yl}cyclohexyl]methyl}-2,3,5-trifluoro-4-hydroxybenzamide, formate salt], the 50% degradation concentration (DC50) was found to be 1.6 nM and the “Huh7_HIBIT-HSD17β13_DC50 GMean Asymptote Maximum” value turned out to be 77%.
Consider `Cc1ccc(C(=O)N2CCC(CCCCN3CCN(c4ccc5cn(C6CCC(CNC(=O)c7cc(F)c(O)c(F)c7F)CC6)nc5c4)CC3)CC2)cc1N1CCC(=O)NC1=O` (stereo not shown) [Example 20, N-{[(1r,4r)-4-{6-[4-(4-{1-[3-(2,4-Dioxo-1,3-diazinan-1-yl)-4-methylbenzoyl]piperidin-4-yl}butyl)piperazin-1-yl]-2H-indazol-2-yl}cyclohexyl]methyl}-2,3,5-trifluoro-4-hydroxybenzamide], for which the DC50 came out at 2.3 nM and the “Huh7_HIBIT-HSD17β13_DC50 GMean Asymptote Maximum” value came out at 78%.
`Cn1c(=O)n(C2CCC(=O)NC2=O)c2cccc(CCN3CCN(c4ccc5cn([C@H]6CC[C@H](CNC(=O)c7cc(F)c(O)c(F)c7F)CC6)nc5c4)CC3)c21` (mixture of isomers) [Example 56, N-{[(1r,4r)-4-{6-[4-(2-{1-[(3RS)-2,6-dioxopiperidin-3-yl]-3-methyl-2-oxo-2,3-dihydro-1H-benzimidazol-4-yl}ethyl)piperazin-1-yl]-2H-indazol-2-yl}cyclohexyl]methyl}-2,3,5-trifluoro-4-hydroxybenzamide, trifluoroacetate salt]: the DC50 was found to be 0.64 nM and the “Huh7_HIBIT-HSD17β13_DC50 GMean Asymptote Maximum” value was 82%.
Take `Cc1ccc(C(=O)N2CCC3(CCC(N4CCN(c5ccc6cn([C@H]7CC[C@H](CNC(=O)c8cc(F)c(O)c(F)c8F)CC7)nc6c5)CC4)C3)CC2)cc1N1CCC(=O)NC1=O` (stereo partly shown) [Example 113, N-({(1r,4r)-4-[6-(4-{8-[3-(2,4-dioxo-1,3-diazinan-1-yl)-4-methylbenzoyl]-8-azaspiro[4.5]decan-2-yl}piperazin-1-yl)-2H-indazol-2-yl]cyclohexyl}methyl)-2,3,5-trifluoro-4-hydroxybenzamide, formate salt]: the DC50 was 1.4 nM and the “Huh7_HIBIT-HSD17β13_DC50 GMean Asymptote Maximum” value is recorded as 79%.

The values are drawn from US20240238425A1, “HSD17B13 Inhibitors and/or Degraders” (Pfizer Inc., priority 2022, published 2024).
